Data as given in patent US12458616B2, “Levodopa dosing regimen” (Amneal Pharmaceuticals, LLC, priority 2020, dated 2025).
Like-named read-outs stand apart in the source and are kept apart here.

Tests used:
[1] = Example 12 pharmacokinetics in healthy subjects: fed, sprinkled on applesauce, fasted; assay type: in vivo, human; conditions: Example 7 capsule 350 mg LD/87.5 mg CD; for Tmax: median (min-max); for AUC(0-t): hour 0 to 24 hours; for Cmax: po, single oral dose
Method: The dosage forms described in Example 7 were administered to 27 healthy male and female subjects between the ages of 18 and 55 with a body weight of at least 55 kg and body mass index of 18.5 to 30.0 kg/m^2 in a single site, open label, single dose, 3-treatment, 3-period, crossover study. The subjects were fasted overnight for at least 10 hours and received a single dose of 350 mg LD and 87.5 CD for each treatment separated by a 6 to 7 day washout period.
No additional food was allowed for at least 4 hours post dose.
Treatment B comprised the oral administration of one capsule prepared in accordance with Example 7 containing 350 mg LD and 87.5 mg CD wherein the contents of the capsule were sprinkled onto 1 tablespoon of applesauce. No additional food was allowed for at least 4 hours post dose.
Treatment C comprised the oral administration of one capsule prepared in accordance with Example 7 containing 350 mg LD and 87.5 mg CD with 240 mL of water. No food was allowed for at least 4 hours post dose.
For Treatments A and C the subjects were instructed to swallow the capsule intact and not to chew, divide or crush the tablet.
For Treatment B, the subjects were instructed to consume all the applesauce without crushing or chewing the beads.
Whole blood samples were taken prior to dosing and at 0.5, 1, 1.5, 2, 2.5, 3, 4, 5, 6, 7, 8, 10, 12, 16 and 24 hours post dose. The plasma samples were analyzed for concentrations of CD and LD by a validated liquid chromatography-tandem mass spectrometry (LC-MS/MS) method. Peak plasma (Cmax), area under the plasma concentration-time curve (AUCt and AUC∞), and time to maximum concentration (Tmax) for LD and CD were evaluated. The mean pharmacokinetic parameters are showing in the following table and in FIGS. 20 and 21.

[2] = cited from earlier work
[3] = both sexes, human, plasma, oral, Fasted, mean ± SD
[4] = both sexes, human, plasma, oral, Fasted, read-out: Tmax
[5] = both sexes, human, plasma, oral, Fed, mean ± SD
[6] = both sexes, human, plasma, oral, Fed, read-out: Tmax
[7] = both sexes, human, plasma, oral, Sprinkled on Applesauce, mean ± SD
[8] = both sexes, human, plasma, Fasted, mean ± SD
[9] = both sexes, human, plasma, Fed (high-fat breakfast), mean ± SD
[10] = both sexes, human, plasma, Sprinkled on Applesauce, mean ± SD

C[C@@](Cc1ccc(O)c(O)c1)(NN)C(=O)O [Carbidopa]
half-life [1, 3]: 3.9 ± 0.56 h | Tmax [1, 4]: 3 h | AUC(0-t) [1, 3]: 2180 ± 906 ng·h/mL | half-life [1, 5]: 3.86 ± 0.78 h | Tmax [1, 6]: 4 h | AUC(0-t) [1, 5]: 751 ± 205 ng·h/mL | half-life [1, 7]: 3.95 ± 0.67 h | Tmax ([1]; both sexes, human, plasma, oral, Sprinkled on Applesauce, read-out: Tmax): 2.5 h | AUC(0-t) [1, 7]: 1910 ± 618 ng·h/mL | Cmax [1, 8]: 404 ± 157 ng/mL | Cmax [1, 9]: 141 ± 41.1 ng/mL | Cmax [1, 10]: 339 ± 91.8 ng/mL

N[C@@H](Cc1ccc(O)c(O)c1)C(=O)O [LD, levodopa]
plasma half-life ([2]; orally administered with CD): about 1.5 hours | plasma half-life ([2]; orally administered without CD): about 50 minutes | T1/2 ([1]; Fed, mean ± SD): 1.79 ± 0.3 h | Tmax ([1]; Sprinkled on Applesauce): 0.5 (0.5-5.0) h | half-life [1, 3]: 2 ± 0.3 h | Tmax [1, 4]: 2 h | AUC(0-t) [1, 3]: 9120 ± 2150 ng·h/mL | Tmax [1, 6]: 4 h | AUC(0-t) [1, 5]: 10600 ± 1430 ng·h/mL | half-life [1, 7]: 2.02 ± 0.31 h | AUC(0-t) [1, 7]: 8330 ± 1960 ng·h/mL | Cmax [1, 8]: 1830 ± 385 ng/mL | Cmax [1, 9]: 2190 ± 473 ng/mL | Cmax [1, 10]: 1630 ± 409 ng/mL
